For orientation: IC50 means the concentration needed to halve the response being measured.

This assay concerns the target CCR2 (Homo sapiens (Human), UniProt P41597). The assay can be described thus: MCP-1 Receptor Binding Assay in THP-1 Cells.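 Further: THP-1 is a human monocytic cell line, and nonspecific binding was defined with 1 µM unlabeled MCP-1.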 The note with it: 0.5 nM 125I labeled MCP-1, 2 hours at 30° C., read-out: Inhibition of MCP-1 Binding IC50 MCP1B.

CCR2, sequence (P41597 whole entry): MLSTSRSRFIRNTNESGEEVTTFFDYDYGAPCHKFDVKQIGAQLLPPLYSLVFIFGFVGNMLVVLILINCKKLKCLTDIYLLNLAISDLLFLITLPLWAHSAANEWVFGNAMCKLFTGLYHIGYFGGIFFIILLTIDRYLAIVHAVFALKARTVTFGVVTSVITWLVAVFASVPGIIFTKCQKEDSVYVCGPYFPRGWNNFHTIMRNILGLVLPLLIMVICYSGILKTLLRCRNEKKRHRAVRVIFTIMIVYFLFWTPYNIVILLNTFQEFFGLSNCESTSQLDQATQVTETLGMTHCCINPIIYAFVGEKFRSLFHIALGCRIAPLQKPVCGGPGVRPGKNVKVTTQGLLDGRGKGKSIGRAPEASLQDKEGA

For `O=C(CNc1ncnc2ccc(C(F)(F)F)cc12)NC1CN([C@H]2CC[C@@H](N3CCCCC3=O)CC2)C1` [Example 56, N-(1-((1s,4s)-4-(2-oxopiperidin-1-yl)cyclohexyl)azetidin-3-yl)-2-((6-(trifluoromethyl)quinazolin-4-yl)amino)acetamide], the IC50 turned out to be 550 nM.
For the molecule `O=C(CNc1ncnc2ccc(C(F)(F)F)cc12)NC1CN([C@H]2CC[C@@H](N3C(=O)CCC3=O)CC2)C1` [Example 57, N-(1-((1s,4s)-4-(2,5-dioxopyrrolidin-1-yl)cyclohexyl)azetidin-3-yl)-2-((6-(trifluoromethyl)quinazolin-4-yl)amino)acetamide], the IC50 stood at 280 nM.
With `O=C(CNc1ccnc2ccc(C(F)(F)F)cc12)NC1CN([C@H]2CC[C@@H](n3ccccc3=O)CC2)C1` [Example 58, N-(1-((1s,4s)-4-(2-oxopyridin-1(2H)-yl)cyclohexyl)azetidin-3-yl)-2-((6-(trifluoromethyl)quinolin-4-yl)amino)acetamide], the half-maximal inhibitory concentration (IC50) was 91 nM.
The figure for `O=C(CNc1cc(C(F)(F)F)nc2ccc(C(F)(F)F)cc12)NC1CN([C@H]2CC[C@@H](n3ccccc3=O)CC2)C1` [Example 59, 2-((2,6-bis(trifluoromethyl)quinolin-4-yl)amino)-N-(1-((1s,4s)-4-(2-oxopyridin-1(2H)-yl)cyclohexyl)azetidin-3-yl)acetamide] is 130 nM; for `N#Cc1cc(NCC(=O)NC2CN([C@H]3CC[C@@H](n4ccccc4=O)CC3)C2)c2cc(C(F)(F)F)ccc2n1` [Example 60, 2-((2-cyano-6-(trifluoromethyl)quinolin-4-yl)amino)-N-(1-((1s,4s)-4-(2-oxopyridin-1(2H)-yl)cyclohexyl)azetidin-3-yl)acetamide] it is 40 nM; for `NC(=O)c1cc(NCC(=O)NC2CN([C@H]3CC[C@@](O)(c4cncs4)CC3)C2)c2cc(C(F)(F)F)ccc2n1` [Example 62] it is 9 nM.
In the case of `CN(CC(=O)NC1CN([C@H]2CC[C@@](O)(c3nccs3)CC2)C1)c1ncnc2ccc(C(F)(F)F)cc12` [Example 64, N-(1-((1r,4r)-4-hydroxy-4-(thiazol-2-yl)cyclohexyl)azetidin-3-yl)-2-(methyl(6-(trifluoromethyl)quinazolin-4-yl)amino)acetamide], the 50% inhibitory concentration (IC50) was 830 nM.
To `Nc1ccc(C2CCC(N3CC(NC(=O)CNc4ncnc5ccc(C(F)(F)F)cc45)C3)CC2)nc1` (stereo not shown) [Example 70, N-(1-(4-(5-aminopyridin-2-yl)cyclohexyl)azetidin-3-yl)-2-((6-(trifluoromethyl)quinazolin-4-yl)amino)acetamide] belongs 9 nM; to `O=C(CNc1ncnc2ccc(C(F)(F)F)cc12)NC1CN([C@H]2CC[C@@H](c3ccccc3CO)CC2)C1` [Example 73, N-(1-((1s,4s)-4-(2-(hydroxymethyl)phenyl)cyclohexyl)azetidin-3-yl)-2-((6-(trifluoromethyl)quinazolin-4-yl)amino)acetamide], 55 nM; to `CNc1cnccc1C1CCC(N2CC(NC(=O)CNc3ncnc4ccc(C(F)(F)F)cc34)C2)CC1` (stereo not shown) [Example 74, N-(1-(4-(3-(methylamino)pyridin-4-yl)cyclohexyl)azetidin-3-yl)-2-((6-(trifluoromethyl)quinazolin-4-yl)amino)acetamide], 130 nM.
As for `Cc1ccc([C@]2(O)CC[C@H](N3CC(NC(=O)CNc4ncnc5ccc(C(F)(F)F)cc45)C3)CC2)cn1` [Example 75, N-(1-((1r,4r)-4-hydroxy-4-(6-methylpyridin-3-yl)cyclohexyl)azetidin-3-yl)-2-((6-(trifluoromethyl)quinazolin-4-yl)amino)acetamide], the concentration for half-maximal inhibition (IC50) was determined as 11 nM.
The figure for `CC(C)c1nc(NCC(=O)NC2CN([C@H]3CC[C@@](O)(c4cncs4)CC3)C2)c2cc(C(F)(F)F)ccc2n1` [Example 88] is 7 nM; for `CCCC(O)[C@H]1CC[C@@H](N2CC(NC(=O)CNc3ncnc4ccc(C(F)(F)F)cc34)C2)CC1` (stereo partly drawn) [Example 90, N-(1-((1S,4s)-4-(1-hydroxybutyl)cyclohexyl)azetidin-3-yl)-2-((6-(trifluoromethyl)quinazolin-4-yl)amino)acetamide] it is 13 nM; for `C=CCC(O)[C@H]1CC[C@@H](N2CC(NC(=O)CNc3ncnc4ccc(C(F)(F)F)cc34)C2)CC1` (stereo partly drawn) [Example 91, N-(1-((1S,4s)-4-(1-hydroxybut-3-en-1-yl)cyclohexyl)azetidin-3-yl)-2-((6-(trifluoromethyl)quinazolin-4-yl)amino)acetamide] it is 16 nM.
To `C=CC(O)[C@H]1CC[C@@H](N2CC(NC(=O)CNc3ncnc4ccc(C(F)(F)F)cc34)C2)CC1` (stereo partly drawn) [Example 92, N-(1-((1S,4s)-4-(1-hydroxyallyl)cyclohexyl)azetidin-3-yl)-2-((6-(trifluoromethyl)quinazolin-4-yl)amino)acetamide] belongs 16 nM.
To `CCC(O)[C@H]1CC[C@@H](N2CC(NC(=O)CNc3ncnc4ccc(C(F)(F)F)cc34)C2)CC1` (stereo partly drawn) [Example 93, N-(1-((1S,4s)-4-(1-hydroxypropyl)cyclohexyl)azetidin-3-yl)-2-((6-(trifluoromethyl)quinazolin-4-yl)amino)acetamide] belongs 21 nM; to `O=C(CNc1ncnc2ccc(C(F)(F)F)cc12)NC1CN([C@H]2CC[C@@H](C(O)C3CCCC3)CC2)C1` (stereo partly drawn) [Example 94, N-(1-((1S,4s)-4-(cyclopentyl(hydroxy)methyl)cyclohexyl)azetidin-3-yl)-2-((6-(trifluoromethyl)quinazolin-4-yl)amino)acetamide], 24 nM; to `C#CC(O)[C@H]1CC[C@@H](N2CC(NC(=O)CNc3ncnc4ccc(C(F)(F)F)cc34)C2)CC1` (stereo partly drawn) [Example 95, N-(1-((1R,4s)-4-(1-hydroxyprop-2-yn-1-yl)cyclohexyl)azetidin-3-yl)-2-((6-(trifluoromethyl)quinazolin-4-yl)amino)acetamide], 28 nM.
Regarding `C=C(C)C(O)[C@H]1CC[C@@H](N2CC(NC(=O)CNc3ncnc4ccc(C(F)(F)F)cc34)C2)CC1` (stereo partly drawn) [Example 96, N-(1-((1R,4s)-4-(1-hydroxy-2-methylallyl)cyclohexyl)azetidin-3-yl)-2-((6-(trifluoromethyl)quinazolin-4-yl)amino)acetamide], the IC50 came to 75 nM.
The figure for `CC(O)[C@H]1CC[C@@H](N2CC(NC(=O)CNc3ncnc4ccc(C(F)(F)F)cc34)C2)CC1` (stereo partly drawn) [Example 97, N-(1-((1S,4s)-4-(1-hydroxyethyl)cyclohexyl)azetidin-3-yl)-2-((6-(trifluoromethyl)quinazolin-4-yl)amino)acetamide] is 89 nM.
The figure for `CC(C)(C)C(O)[C@H]1CC[C@@H](N2CC(NC(=O)CNc3ncnc4ccc(C(F)(F)F)cc34)C2)CC1` (stereo partly drawn) [Example 98, N-(1-((1R,4s)-4-(1-hydroxy-2,2-dimethylpropyl)cyclohexyl)azetidin-3-yl)-2-((6-(trifluoromethyl)quinazolin-4-yl)amino)acetamide] is 753 nM; for `O=C(CNc1ncnc2ccc(C(F)(F)F)cc12)NC1CN([C@H]2CC[C@@H](C(O)c3cncs3)CC2)C1` (stereo partly drawn) [Example 99, N-(1-((1R,4s)-4-(hydroxy(thiazol-5-yl)methyl)cyclohexyl)azetidin-3-yl)-2-((6-(trifluoromethyl)quinazolin-4-yl)amino)acetamide] it is 19 nM; for `CCC(OC(C)=O)[C@H]1CC[C@@H](N2CC(NC(=O)CNc3ncnc4ccc(C(F)(F)F)cc34)C2)CC1` (stereo partly drawn) [Example 100, 1-((1s,4S)-4-(3-(2-((6-(trifluoromethyl)quinazolin-4-yl)amino)acetamido)azetidin-1-yl)cyclohexyl)propyl acetate] it is 28 nM.
To `O=C(CNc1ncnc2ccc(C(F)(F)F)cc12)NC1CN(C2CCCCC2)C1` [Example 101, N-(1-cyclohexylazetidin-3-yl)-2-((6-(trifluoromethyl)quinazolin-4-yl)amino)acetamide] belongs 63 nM; to `O=C(CNc1ncnc2ccc(C(F)(F)F)cc12)NC1CN([C@H]2CC[C@@H](C3CCCCC3)CC2)C1` [Example 102, N-(1-((1s,4s)-1^˜1,1′-bi(cyclohexan)1-4-yl)azetidin-3-yl)-2-((6-(trifluoromethyl)quinazolin-4-yl)amino)acetamide], 880 nM.
Take `O=C1CCC(N2CC(NC(=O)CNc3ncnc4ccc(C(F)(F)F)cc34)C2)CC1` [Example 103, N-(1-(4-oxocyclohexyl)azetidin-3-yl)-2-((6-(trifluoromethyl)quinazolin-4-yl)amino)acetamide]: the half-maximal inhibitory concentration (IC50) amounted to 530 nM.
The figure for `CCC(NC(=O)OC)[C@H]1CC[C@@H](N2CC(NC(=O)CNc3ncnc4ccc(C(F)(F)F)cc34)C2)CC1` (stereo partly drawn) [Example 104, methyl (−1-((1s,4S)-4-(3-(2-((6-(trifluoromethyl)quinazolin-4-yl)amino)acetamido)azetidin-1-yl)cyclohexyl)propyl)carbamate] is 644 nM; for `CCOCC1CCC(N2CC(NC(=O)CNc3ncnc4ccc(C(F)(F)F)cc34)C2)CC1` (stereo not shown) [Example 105, N-(1-(4-(ethoxymethyl)cyclohexyl)azetidin-3-yl)-2-((6-(trifluoromethyl)quinazolin-4-yl)amino)acetamide] it is 14 nM.
On to `CCOC(=O)[C@H]1CC[C@@H](N2CC(NC(=O)CNc3ncnc4ccc(C(F)(F)F)cc34)C2)CC1` [Example 106, (1s,4s)-ethyl 4-(3-(2-((6-(trifluoromethyl)quinazolin-4-yl)amino)acetamido)azetidin-1-yl)cyclohexanecarboxylate], for which the IC50 was determined as 13 nM.
Consider `O=C(CNc1ncnc2ccc(C(F)(F)F)cc12)NC1CN([C@H]2CC[C@@H](CCO)CC2)C1` [Example 108, N-(1-((1s,4s)-4-(2-hydroxyethyl)cyclohexyl)azetidin-3-yl)-2-((6-(trifluoromethyl)quinazolin-4-yl)amino)acetamide], for which the concentration for half-maximal inhibition (IC50) turned out to be 19 nM.
The figure for `O=C(CNc1ncnc2ccc(C(F)(F)F)cc12)NC1CN([C@H]2CC[C@@H](CO)CC2)C1` [Example 109, N-(1-((1s,4s)-4-(hydroxymethyl)cyclohexyl)azetidin-3-yl)-2-((6-(trifluoromethyl)quinazolin-4-yl)amino)acetamide] is 58 nM.

The record behind these values is patent US9062048B2, “Cyclohexyl-azetidinyl antagonists of CCR2” (Janssen Pharmaceutica NV, priority 2010, dated 2015).
